Data as given in patent US20130165426A1, “IMIDAZOPYRIDINE, IMIDAZOPYRIMIDINE AND IMIDAZOPYRAZINE DERIVATIVES AS MELANOCORTIN-4 RECEPTOR MODULATORS” (UNIVERSITÉ DE MONTRÉAL, priority 2010, published 2013).
Non-standard residues stand in square brackets, D forms with d. Nle = CCCC[C@H](N)C(=O)O

tested on: MC4R as compared to the MC5R; assay: not given; conditions: Nijenhuis et al. Peptides 2003; cited from earlier work

Compound | selectivity for the MC4R as compared to the MC5R (MC4R/MC5R)
Ac-Nle-Gly-Lys-D-NaI(2)-Arg-Trp-Gly-NH(2) | 109 fold
Ac-Nle-Gly-Lys-D-Phe-Arg-Trp-Gly-NH(2) (Ac-[Nle]GK[dF]RWG-NH2; SMILES CCCC[C@H](NC(C)=O)C(=O)NCC(=O)N[C@@H](CCCCN)C(=O)N[C@H](Cc1ccccc1)C(=O)N[C@@H](CCCNC(=N)N)C(=O)N[C@@H](Cc1c[nH]c2ccccc12)C(=O)NCC(N)=O) | 110 fold

tested on: MC4R as compared to the MC3R; assay: not given; conditions: Nijenhuis et al. 2003; Sutton et al. 2008; cited from earlier work

Compound | selectivity for the MC4R as compared to the MC3R (MC4R/MC3R)
Ac-Nle-Gly-Lys-D-NaI(2)-Arg-Trp-Gly-NH(2) | 34 fold
Ac-Nle-Gly-Lys-D-Phe-Arg-Trp-Gly-NH(2) (Ac-[Nle]GK[dF]RWG-NH2; SMILES CCCC[C@H](NC(C)=O)C(=O)NCC(=O)N[C@@H](CCCCN)C(=O)N[C@H](Cc1ccccc1)C(=O)N[C@@H](CCCNC(=N)N)C(=O)N[C@@H](Cc1c[nH]c2ccccc12)C(=O)NCC(N)=O) | 90 fold

molecular target: T1, wild-type human melanocortin 4 receptor (WT-hMC4R) (Homo sapiens, UniProt P32245); assay: Cyclic AMP assay (HTRF), antagonist competition against NDP-α-MSH; format: cell-based; conditions: HEK293T cells stably expressing WT-hMC4R; inhibition of response to 4 nM NDP-α-MSH; cAMP
T1 construct: expressed in transfected cells
Protocol: The general procedures described above were used to prepare the examples described below. Reported HPLC retention time are for reverse-phase HPLC (Agilent, 1200 series) using the conditions reported above (See “General” section). Mass spectra were recorded on a 6210 G1969A LC/MSD TOF spectrometer from Agilent Technologies using the LC conditions reported above (See “General” section). IC50 values were obtained using the cAMP assay described below.
IC50 value is the half maximal concentration of the tested compound to inhibit half of the maximal response of the agonist NDP-α-MSH. It is a measurement of the antagonist compound potency.
Intracellular cyclic 3′-5′ adenosine monophosphate (cAMP) accumulation was measured using a competitive immunoassay based on HTRF (Homogeneous Time-Resolved Fluorescence) technology (cAMP dynamic-2, Cis-Bio).
HEK293T stable cell line expressing double-tagged WT-hMC4R construct were collected and washed in cAMP buffer (1×D-PBS pH 7.4, 0.1% glucose). 40,000 cells/well were then dispensed in 96-well plates in cAMP buffer [1×D-PBS, 1% BSA, 0.1% Glucose, 0.75 mM 3-isobutyl-1-methyl-xanthine (IBMX, Sigma)] and incubated either for antagonist competition assay: 1 hour at 37° C. with various concentrations of compound [0.01 nM-10 μM] followed by 30 min incubation at 37° C. with 4 nM of NDP-α-MSH (Sigma) or for agonist assay: 1 hour at 37° C. with various concentrations of compound [0.01 nM-10 μM]. 10,000 cells were transferred in 384-well plates, lysed and incubated with cAMP labeled with the dye d2 and anti-cAMP M-Antidody labeled with Cryptate following the manufacturer's protocol.
Reading of HTRF signal was performed on Artemis TR-FRET plate reader (Cosmo Bio).
All curve fitting was conducted using non-linear regression analyses from PRISM (version 4.0c, GraphPad Inc.) and the determination of Rmax and EC50 or IC50 parameters were obtained from sigmoidal dose-response phase (variable slope) equation.
A cDNA encoding a wild-type human MC4R with a 3 tandem copies of Hemaglutinine (HA) epitote sequence from UMR cDNA resource center was modified using known techniques in the art (e.g., PCR, cloning) to fused in frame at the C-terminal a venus-Yellow Fluorescent Protein (YFP) cDNA.
The resultant cDNA was then subcloned in eukaryotic expression vector, e.g. pcDNA 3.1(+) (Invitrogen).
The double tagged WT-hMC4R was transfected in HEK293T cells with lipofectamine (Invitrogen) following the manufacturer's instructions and permanently transfected clonal cell lines were selected by resistance to the neomycin analog G418.
HEK293T stable cell line expressing wild-type human melanocortin 4 receptor (WT-hMC4R) containing an N-terminal 3×HA epitope tag and an intracellular C-terminal venus-yellow fluorescent protein (v-YFP) were maintained at 37° C. in humidified air containing 5% CO2 in Dulbecoo's modified Eagle's medium (DMEM) supplemented with 10% fetal bovine serum (FBS), 100 U/ml penicillin/streptomycin (DMEM complete/10% FBS). Cells were generally at 70%-80% confluence on the day of assay.

T1 sequence (P32245 whole entry): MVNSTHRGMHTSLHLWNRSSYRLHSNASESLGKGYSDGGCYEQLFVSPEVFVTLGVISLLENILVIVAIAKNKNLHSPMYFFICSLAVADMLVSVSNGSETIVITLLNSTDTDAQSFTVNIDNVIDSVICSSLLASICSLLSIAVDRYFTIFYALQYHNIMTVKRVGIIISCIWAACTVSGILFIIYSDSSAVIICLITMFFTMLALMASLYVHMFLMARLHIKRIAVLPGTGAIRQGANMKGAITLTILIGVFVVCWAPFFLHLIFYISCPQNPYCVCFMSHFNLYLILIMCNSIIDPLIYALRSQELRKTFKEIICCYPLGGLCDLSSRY

Compound | IC50
CCCCN(CCCC)C(=O)c1ccc2nc(Nc3ccc(C(=O)N4CCOCC4)cc3)n(CCCN3CCCCC3)c2n1 [Cpd 59] | 100 to 1000 nM
CCCCN(CCCC)C(=O)c1cc2c(cn1)nc(-c1ccc(OC)cc1)n2CCCN1CCCCC1 [Cpd 60] | 1000 to 15000 nM
CCCCN(CCCC)C(=O)c1ccc2nc(SCC)n(CCCN3CCCCC3)c2n1 [Cpd 61] | 1000 to 15000 nM
CCCCN(CCCC)C(=O)c1ccc2nc(Oc3ccc(OC)cc3)n(CCCN3CCCCC3)c2n1 [Cpd 62] | 100 to 1000 nM
COc1ccc(-c2nc3cnc(C(=O)N(CCC(C)C)CCC(C)C)cc3n2CCCN2CCCCC2)cc1 [Cpd 63] | 100 to 1000 nM
COc1ccc(Br)cc1-c1nc2cnc(C(=O)N(CCC(C)C)CCC(C)C)cc2n1CCCN1CCCCC1 [Cpd 64] | 1000 to 15000 nM
CC(C)CCN(CCC(C)C)C(=O)c1cc2c(cn1)nc(-c1cc3ccccc3s1)n2CCCN1CCCCC1 [Cpd 65] | < 100 nM
CCCCN(CCCC)C(=O)c1cc2c(cn1)nc(Oc1ccc(OC)cc1)n2CCCN1CCCCC1 [Cpd 66] | 100 to 1000 nM
CCCCN(CCCC)C(=O)c1ccc2nc(Nc3ccc(C(=O)O)cc3)n(CCCN3CCCCC3)c2n1 [Cpd 67] | 1000 to 15000 nM
CC(=O)c1ccc(Nc2nc3ccc(C(=O)N(CCC(C)C)CCC(C)C)nc3n2CCCN2CCCCC2)cc1 [Cpd 68] | < 100 nM
CC(C)CCN(CCC(C)C)C(=O)c1ccc2nc(Nc3ccc(C(C)O)cc3)n(CCCN3CCCCC3)c2n1 (stereo not drawn) [Cpd 69] | < 100 nM
CC(C)CCN(CCC(C)C)C(=O)c1ccc2nc(Nc3ccc(C(C)(C)O)cc3)n(CCCN3CCCCC3)c2n1 [Cpd 70] | < 100 nM
COC(=O)c1ccc(Nc2nc3ccc(C(=O)N(CCC(C)C)CCC(C)C)nc3n2CCCN2CCCCC2)cc1 [Cpd 71] | < 100 nM
COc1ccc(-c2nc3ccc(C(=O)N(CCC(C)C)CCC(C)C)nc3n2CCCN2CCCCC2)cc1 [Cpd 72] | 100 to 1000 nM
CC(C)CCN(CCC(C)C)C(=O)c1ccc2nc(-c3ccc4c(c3)OCO4)n(CCCN3CCCCC3)c2n1 [Cpd 73] | 100 to 1000 nM
COc1ccc(Nc2nc3ccc(C(=O)N(CCC(C)C)CCC(C)C)nc3n2CCCN2CCOCC2)cc1 [Cpd 74] | 100 to 1000 nM
CC(C)CCN(CCC(C)C)C(=O)c1ccc2nc(Nc3cccnc3)n(CCCN3CCOCC3)c2n1 [Cpd 75] | 100 to 1000 nM
CC(C)CCN(CCC(C)C)C(=O)c1ccc2nc(NCc3ccc4c(c3)OCO4)n(CCCN3CCOCC3)c2n1 [Cpd 76] | 100 to 1000 nM
COc1ccc(-c2nc3ccc(C(=O)N(CCC(C)C)CCC(C)C)nc3n2CCCN2CCOCC2)cc1 [Cpd 77] | 1000 to 15000 nM
CC(=O)N1CCC(c2nc3ccc(C(=O)N(CCC(C)C)CCC(C)C)nc3n2CCCN2CCOCC2)CC1 [Cpd 78] | 1000 to 15000 nM
